Assay results as given in article PMC7849011, “Defining the Antimalarial Activity of Cipargamin in Healthy Volunteers Experimentally Infected with Blood-Stage Plasmodium falciparum” (Antimicrobial Agents and Chemotherapy, 2021).

Experiment: Population PK model (two-compartment)
Assay type: in vivo, human
Procedure: Data preparation, exploration, model definition, model evaluation and simulations were performed in R (version 3.5.1) and the R package IQRtools (version 1.0.6; IntiQuan, Basel, Switzerland) within the software package MonolixSuite 2018R2 (Lixoft, Antony, France). The MIC and the minimum parasiticidal concentration that achieves 90% of maximum effect (MPC90) were derived from the PK/PD model. Simulations were performed to predict the minimum effective single dose, defined as the dose that clears 10^9 parasites/ml. Further detail on PK/PD modeling methods is presented in Text S1.
Pharmacokinetic/Pharmacodynamic modelling methods and results […]
The objectives of the PK/PD modelling anal ysis w ere:
1. To develop a population PK model of cipar gamin in healthy subjects inoculated with blood stage P. falciparum .
2. To char acterize the PK/PD relationship between cipargamin pharmacokinetics and parasite cl ear ance in h eal th subjects inoculated with blood stage P. falcipar um .
3. To determine the minimum inhibitory concent ration (M IC ) of cipargamin .
4. To establish the minimum effective cipar gamin single dose required to kill 10 9
Data preparation, exploration, model definition, model evaluation and simulations were performed in R (version 3.5.1) and the R package IQRtools (version 1.0.6, IntiQuan GmbH, Basel, Switzerland) withi n the software package MonolixSuite2018R2 (Li xoft, Anton y, Fran ce) which implemen ts stochastic approx imation ex pectation-maximisation (SAEM) algorithm for parameter estimation.
One-, two- and three-compartment with different absorption and elimination models were tested. Zero- and first-order absorption models wi th or without lag time were examined. Data below the lower limit of quantitation ( LLO Q; 0.001 µg/ m L) were treated using a left - censoring method. Between subject vari abilit y ( BSV) of the PK parameters was assumed to be normally distributed on log -scale. The random effects across the par ameters within an individual were modelled according to a multivari ate normal distribution (MVN). BS V w as […]
supported by the data.The residual unexplained variabilit y (RUV) was tested using a proportional or combined error models.
Population PK/PD modelling
A sequential PK/PD modelling approach was used in which the empirical Bayes estimates of individual PK parameters were us ed as r egression parameters for the PK/P D model. The observations below the limit of detection (LOD; 10 parasites/mL) were mo del led using a l eft-censoring method. In this anal ysis, the changes in parasitemia over time in the presen ce of antimalarial dru g are ass umed to be a result of the differen ce b etween p ar asite growth rate (k grow ) and the r ate at wh ich parasites are killed b y the drug (k k ill ) with a baseline parasitemia (P L base ) at time t 0 (time of inoculation). Diff erent structural PK/PD models were tested to assess the relationship of cipar gamin plasma concentration on the parasite ki lling rate. The E max model assumed a direct effect of cipargamin plasma concent rations on parasite killing.
The turnover model assumed an indirect effect of cipargamin plasma concentrations on parasite killing due to lag in the PD processes (i.e. the kinetics of dru g-receptor binding). The effect compartment mod el assumed an indirect ef fect of cipar gamin plasm a concentration on parasite killing due to biophase equilibration. […]

C[C@H]1Cc2c([nH]c3cc(Cl)c(F)cc23)[C@@]2(N1)C(=O)Nc1ccc(Cl)cc12 [cipargamin]
CL/F, estimate (RSE %) (final population PK model): 5.5 (10.7) L/h
Vc/F, estimate (RSE %) (final population PK model): 64.4 (8.9) L
Q1/F, estimate (RSE %) (human, in vivo): 12.9 (9.0) L/h
Vp1/F, estimate (RSE %) (human, in vivo): 107 (4.8) L
ka, estimate (RSE %) (human, in vivo): 0.919 (4.6) /h
